AC50, IC50 and EC50 data for 13 compounds are collected here from ChEMBL document CHEMBL1201862, “PubChem BioAssay data set” (2004).

One assay has as its target Paired box protein Pax-8 (Homo sapiens, UniProt Q06710). Put plainly: PAX8 transcriptional activity inhibition in RMG-I – RMG-I cells, luciferase, cherry-pick, dose response (AID 687027).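 Also: luciferase reporter driven by Pax8 target thyroperoxidase promoter measured by SteadyGlo luminescence.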 In kind it is functional, cell-based.
Assay [1] in a line: OVCAR8 cell viability loss – plate reader, dry powder samples, PAX8 project, dose response (AID 743197). It counts as functional, cell-based. Particulars: OVCAR-8.
A short description of assay [2]: IGROV1 cell killing – plate reader, dry powder samples, PAX8 inhibitor project, dose response (AID 743043). It counts as functional, cell-based. The settings on record: IGROV-1.
In assay [3] the target is T1, Histone-lysine N-methyltransferase NSD2 (Homo sapiens, UniProt O96028).
T1 sequence (O96028 whole entry): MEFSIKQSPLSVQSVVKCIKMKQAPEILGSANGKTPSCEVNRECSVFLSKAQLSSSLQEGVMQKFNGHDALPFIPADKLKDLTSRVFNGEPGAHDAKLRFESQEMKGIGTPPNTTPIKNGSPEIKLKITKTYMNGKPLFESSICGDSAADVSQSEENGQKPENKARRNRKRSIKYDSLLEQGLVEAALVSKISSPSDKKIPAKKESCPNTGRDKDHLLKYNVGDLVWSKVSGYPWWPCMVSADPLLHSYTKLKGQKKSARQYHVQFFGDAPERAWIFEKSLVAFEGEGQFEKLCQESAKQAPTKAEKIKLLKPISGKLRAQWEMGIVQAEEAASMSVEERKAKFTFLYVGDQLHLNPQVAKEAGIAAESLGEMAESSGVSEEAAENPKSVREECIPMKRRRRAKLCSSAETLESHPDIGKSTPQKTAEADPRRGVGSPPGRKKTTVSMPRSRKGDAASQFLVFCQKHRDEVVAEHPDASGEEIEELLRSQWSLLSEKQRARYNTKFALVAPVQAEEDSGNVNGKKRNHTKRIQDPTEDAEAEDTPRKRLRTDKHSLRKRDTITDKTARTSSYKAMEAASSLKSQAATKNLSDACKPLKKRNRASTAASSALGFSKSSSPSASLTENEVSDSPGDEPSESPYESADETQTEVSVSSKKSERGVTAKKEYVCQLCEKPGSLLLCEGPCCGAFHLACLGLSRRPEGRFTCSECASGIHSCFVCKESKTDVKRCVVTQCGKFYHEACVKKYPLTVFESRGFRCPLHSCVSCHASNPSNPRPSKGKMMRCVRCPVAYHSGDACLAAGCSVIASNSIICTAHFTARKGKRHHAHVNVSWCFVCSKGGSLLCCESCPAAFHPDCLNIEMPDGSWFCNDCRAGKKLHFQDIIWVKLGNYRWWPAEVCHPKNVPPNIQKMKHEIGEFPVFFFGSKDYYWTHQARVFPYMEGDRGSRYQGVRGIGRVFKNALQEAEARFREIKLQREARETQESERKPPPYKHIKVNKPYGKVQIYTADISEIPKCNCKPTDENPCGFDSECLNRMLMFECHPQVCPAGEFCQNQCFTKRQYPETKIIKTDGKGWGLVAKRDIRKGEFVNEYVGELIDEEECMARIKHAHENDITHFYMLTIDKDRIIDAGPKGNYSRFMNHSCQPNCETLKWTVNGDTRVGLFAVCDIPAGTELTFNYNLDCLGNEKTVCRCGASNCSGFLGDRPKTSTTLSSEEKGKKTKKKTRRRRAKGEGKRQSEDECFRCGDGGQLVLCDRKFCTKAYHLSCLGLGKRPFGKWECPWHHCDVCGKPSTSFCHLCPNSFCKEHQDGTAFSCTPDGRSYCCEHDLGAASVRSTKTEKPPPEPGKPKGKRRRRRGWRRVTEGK
In kind it is biochemical.

The next assay deals with T2, Estrogen receptor (Homo sapiens, UniProt P03372).
T2 sequence (P03372 whole entry): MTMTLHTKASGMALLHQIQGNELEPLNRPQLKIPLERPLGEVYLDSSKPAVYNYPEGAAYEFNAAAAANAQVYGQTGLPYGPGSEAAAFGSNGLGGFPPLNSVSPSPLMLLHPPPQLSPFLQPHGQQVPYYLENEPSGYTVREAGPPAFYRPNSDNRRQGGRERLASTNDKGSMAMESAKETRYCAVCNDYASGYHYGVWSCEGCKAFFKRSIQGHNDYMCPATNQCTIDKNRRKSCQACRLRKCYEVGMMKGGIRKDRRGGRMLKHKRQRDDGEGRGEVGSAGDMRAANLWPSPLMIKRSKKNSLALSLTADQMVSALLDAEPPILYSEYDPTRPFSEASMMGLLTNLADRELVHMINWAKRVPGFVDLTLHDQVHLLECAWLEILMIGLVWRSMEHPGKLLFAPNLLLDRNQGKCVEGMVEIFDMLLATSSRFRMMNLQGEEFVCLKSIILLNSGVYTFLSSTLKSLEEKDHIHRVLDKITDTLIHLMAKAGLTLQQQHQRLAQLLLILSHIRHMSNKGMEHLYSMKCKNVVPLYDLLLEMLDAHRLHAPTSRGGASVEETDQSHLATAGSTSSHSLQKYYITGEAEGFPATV

Assay [4] addresses T3, DNA repair and recombination protein RAD54-like (Homo sapiens, UniProt Q92698).
T3 sequence (Q92698 whole entry): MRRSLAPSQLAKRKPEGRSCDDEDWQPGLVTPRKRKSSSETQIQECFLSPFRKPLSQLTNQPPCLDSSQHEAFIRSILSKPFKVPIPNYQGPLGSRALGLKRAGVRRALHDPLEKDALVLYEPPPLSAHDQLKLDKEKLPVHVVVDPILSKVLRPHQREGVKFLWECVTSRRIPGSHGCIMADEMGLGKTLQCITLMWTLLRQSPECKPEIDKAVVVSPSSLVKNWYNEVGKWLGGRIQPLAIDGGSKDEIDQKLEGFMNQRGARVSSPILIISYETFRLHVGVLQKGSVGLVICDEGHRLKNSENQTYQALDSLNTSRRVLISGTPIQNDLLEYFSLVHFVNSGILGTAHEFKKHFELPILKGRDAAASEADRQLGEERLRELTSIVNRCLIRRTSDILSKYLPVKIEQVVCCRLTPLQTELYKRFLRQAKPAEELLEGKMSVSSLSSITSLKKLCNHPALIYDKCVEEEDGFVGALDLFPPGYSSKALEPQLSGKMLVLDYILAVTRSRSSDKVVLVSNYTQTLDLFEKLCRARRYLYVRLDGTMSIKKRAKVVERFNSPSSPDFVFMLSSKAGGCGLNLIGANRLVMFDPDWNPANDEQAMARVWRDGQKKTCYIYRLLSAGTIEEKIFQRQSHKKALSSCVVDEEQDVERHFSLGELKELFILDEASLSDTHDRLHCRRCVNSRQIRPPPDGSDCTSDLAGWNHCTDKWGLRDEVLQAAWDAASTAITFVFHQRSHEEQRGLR
Put plainly: RAD54 Holliday junction migration blockers – biochemical, fluorescence, cherry-picked samples, dose series, confirmation (AID 651657). It counts as functional.

Assay [5] has as its target T4, DNA repair protein RAD52 homolog (Homo sapiens, UniProt P43351).
T4 sequence (P43351 whole entry): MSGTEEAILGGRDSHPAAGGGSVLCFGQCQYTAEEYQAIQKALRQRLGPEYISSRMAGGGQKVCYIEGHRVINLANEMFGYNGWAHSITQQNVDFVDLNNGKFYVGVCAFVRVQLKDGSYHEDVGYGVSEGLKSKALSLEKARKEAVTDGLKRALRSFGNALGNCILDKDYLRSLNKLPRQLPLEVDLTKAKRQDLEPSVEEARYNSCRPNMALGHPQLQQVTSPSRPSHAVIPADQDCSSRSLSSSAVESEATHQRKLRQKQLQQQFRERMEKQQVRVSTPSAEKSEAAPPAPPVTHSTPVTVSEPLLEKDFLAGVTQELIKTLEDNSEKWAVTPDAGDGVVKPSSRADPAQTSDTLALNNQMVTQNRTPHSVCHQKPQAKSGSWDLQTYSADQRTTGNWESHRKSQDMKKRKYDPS
It counts as functional, biochemical.

Assay [6] can be described thus: OVCAR-3 cell viability loss – plate reader, dry powder samples, PAX8 inhibitor project, dose response (AID 743044). It counts as functional, cell-based.
For a further assay, the target named is Nonstructural protein 1 (Influenza A virus, UniProt Q194T2). It counts as functional, Influenza A virus (A/California/07/2009(H1N1)).
Assay [7] can be described thus: viability of HCT116 lacking mutant beta-catenin – cell-based, human colon tumor, dose response (AID 1045).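 Also: HCT116 colon tumor cells with beta catenin knocked out; cells exposed to compound for 60 hours.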 In kind it is functional.
A short description of assay [8]: viability of PTEN-deleted HCT116 cells – cell-based, HCT116 PTEN knockout, dose response (AID 1047).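 Also: HCT116 colon tumor cells with PTEN knocked out; cells exposed to compound for 60 hours before readout; potency for loss of cell viability measured by luminescence.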 In kind it is functional.
The target in assay [9] is T5, Mannose-6-phosphate isomerase (Homo sapiens, UniProt P34949).
T5 sequence (P34949 whole entry): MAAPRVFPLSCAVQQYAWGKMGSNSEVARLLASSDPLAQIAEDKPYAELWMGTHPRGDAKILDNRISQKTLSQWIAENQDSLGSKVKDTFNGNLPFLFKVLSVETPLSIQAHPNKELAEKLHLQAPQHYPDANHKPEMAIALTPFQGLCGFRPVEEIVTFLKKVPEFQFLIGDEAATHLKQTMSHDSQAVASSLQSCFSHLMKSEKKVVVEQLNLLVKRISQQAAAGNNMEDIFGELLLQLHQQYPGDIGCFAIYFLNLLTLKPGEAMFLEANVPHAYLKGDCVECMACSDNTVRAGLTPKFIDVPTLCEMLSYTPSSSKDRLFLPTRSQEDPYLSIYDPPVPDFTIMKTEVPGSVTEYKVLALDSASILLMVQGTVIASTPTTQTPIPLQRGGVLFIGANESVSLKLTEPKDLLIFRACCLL
Put plainly: MPI inhibition at elevated mannose 6-phosphate – biochemical, fluorescence intensity, high mannose 6-phosphate, primary screen (AID 1220).

Assay [10] is described as follows: Trypanosoma cruzi growth suppression in host cells – NIH3T3 host cells, beta-gal luminescence, confirmation (AID 2044).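 Also: intracellular parasites grown in NIH/3T3 mouse fibroblasts as host cells; luminescent beta-galactosidase reporter signal from transgenic T. cruzi replicating inside host cells; inhibitors lower the luminescence signal.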 It counts as functional, cell-based.
Assay [11] can be described thus: NIH3T3 cell viability loss – ATP luminescence, mouse fibroblasts, counter-screen, dose response (AID 2010).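 Also: cells exposed to compound for about 90 hours before reading.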 It counts as functional, cell-based. (In general: Counterscreens check selectivity or assay interference.)
The target in assay [12] is T6, Microphthalmia-associated transcription factor (Homo sapiens, UniProt O75030).
T6 sequence (O75030 whole entry): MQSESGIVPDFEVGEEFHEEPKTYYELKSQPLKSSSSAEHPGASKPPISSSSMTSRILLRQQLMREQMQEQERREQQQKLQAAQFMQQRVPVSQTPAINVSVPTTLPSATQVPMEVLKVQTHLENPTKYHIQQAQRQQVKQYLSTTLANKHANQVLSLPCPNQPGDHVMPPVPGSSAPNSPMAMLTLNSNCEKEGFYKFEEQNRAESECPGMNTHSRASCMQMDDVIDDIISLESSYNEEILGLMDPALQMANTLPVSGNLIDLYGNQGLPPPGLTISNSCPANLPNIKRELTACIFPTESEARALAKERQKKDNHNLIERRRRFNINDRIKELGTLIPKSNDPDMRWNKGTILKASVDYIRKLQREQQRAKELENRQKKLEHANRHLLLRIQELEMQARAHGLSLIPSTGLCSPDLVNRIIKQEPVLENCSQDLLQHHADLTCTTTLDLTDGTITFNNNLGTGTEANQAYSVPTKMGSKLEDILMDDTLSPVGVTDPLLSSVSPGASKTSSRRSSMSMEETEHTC
Put plainly: reducers of TRPM1 reporter luminescence, concentration series – cell-based, SK-MEL-5, cherry-picked, set 3, MITF inhibitor project, dose response (AID 493073).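 Also: SK-MEL-5 melanoma cells with luciferase driven by the MITF target TRPM1 promoter.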 It counts as functional.

A further assay deals with INS1. Description: INS-1E survival protection against cytokine death – cell-based, luminescence, retest, dose response (AID 449756).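 Also: cell death triggered by IL-1 beta plus TNF-alpha plus IFN-gamma mixture; protective hits raise ATP signal compared with cytokine alone wells.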 It counts as functional. Particulars: Rattus norvegicus.

Activity calls are given as the source filed them.

Sequence of Paired box protein Pax-8 (Q06710 whole entry): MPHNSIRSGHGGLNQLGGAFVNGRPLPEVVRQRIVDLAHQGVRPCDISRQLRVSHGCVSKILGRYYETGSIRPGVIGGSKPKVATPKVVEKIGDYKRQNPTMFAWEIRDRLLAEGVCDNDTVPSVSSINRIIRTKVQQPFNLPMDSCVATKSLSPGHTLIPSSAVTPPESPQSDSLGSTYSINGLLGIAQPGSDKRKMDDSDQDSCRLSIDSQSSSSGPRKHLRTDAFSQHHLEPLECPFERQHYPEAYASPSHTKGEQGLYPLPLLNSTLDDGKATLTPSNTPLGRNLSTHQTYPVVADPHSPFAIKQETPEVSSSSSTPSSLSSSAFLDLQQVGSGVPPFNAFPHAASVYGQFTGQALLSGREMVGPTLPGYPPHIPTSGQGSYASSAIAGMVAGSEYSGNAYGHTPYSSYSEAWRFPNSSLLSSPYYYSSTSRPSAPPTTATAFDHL
Sequence of Nonstructural protein 1 (Q194T2 whole entry): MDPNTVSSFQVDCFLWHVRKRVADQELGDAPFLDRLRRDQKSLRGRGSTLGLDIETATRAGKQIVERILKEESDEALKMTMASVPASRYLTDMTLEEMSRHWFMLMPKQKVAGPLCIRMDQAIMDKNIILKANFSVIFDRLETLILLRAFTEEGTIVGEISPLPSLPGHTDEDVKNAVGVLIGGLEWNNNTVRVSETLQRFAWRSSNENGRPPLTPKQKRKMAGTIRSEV

Usually AC50 stands for the concentration giving half of the maximal activity seen. Turning to `C[C@@H]1CCCCO[C@@H](CN(C)C(=O)Nc2ccc(F)cc2)[C@H](C)CN([C@H](C)CO)C(=O)c2cc(NS(=O)(=O)c3ccc(Cl)cc3)ccc2O1`, the AC50 at Paired box protein Pax-8 is 6.23 µM (active); in assay [1], > 70 µM (inactive); in [2], 53 µM (active).

For the compound `O=C1C(=O)C(Cl)=C(Cl)C(Cl)=C1Cl`, the AC50 in assay [3] was 11.2 µM (active).

Usually IC50 stands for the concentration that inhibits the measured activity by half. For the compound `O=C(Nc1ccc2nn(-c3ccccc3)nc2c1)c1ccc2c(c1)OCO2`, the IC50 on Estrogen receptor is 6.3 µM (active).

Regarding `CCN(CC)CCNS(=O)(=O)c1ccc2c3c(cccc13)C(=O)N2`, in [3], the AC50 was > 20 µM (inactive).

`COc1cccc2sc3cc(NCCCN4CCOCC4)ccc3c(=O)c12`: the concentration at half-maximal activity (AC50) is 10.6 µM (active) in [4] and 5.68 µM (active) in assay [5].

As to `C[C@@H]1CCCCO[C@@H](CN(C)Cc2ccc3c(c2)OCO3)[C@@H](C)CN([C@@H](C)CO)C(=O)c2cc(NC(=O)Nc3ccc(C(F)(F)F)cc3)ccc2O1`, the AC50 at Paired box protein Pax-8 was 8.56 µM (active); in assay [6] it was 40.3 µM (active); in assay [1], 44 µM (active); in [2], 37.4 µM (active).

On to `CCOc1ccc(NC2=C(OC)C(=O)c3ccccc3C2=O)cc1`, for which the AC50 in assay [3] was 6.18 µM (active). Besides, the IC50 at Nonstructural protein 1 was 7.02 µM (active).

`CCOCC(=O)Nc1cccc(C(=O)OCC)c1`: at Estrogen receptor, the IC50 was > 50 µM (not active).

What is called EC50 is the concentration that produces a half-maximal response. Take `CCN(CC)CCNC(=O)c1cc2c(-c3ccc(Cl)cc3)nn(C)c2s1`: the EC50 in assay [7] is 4.09 µM (active); in assay [8] it was 5.5 µM (active). Moreover, the AC50 in assay [4] was 6.7 µM (active).

For the compound `O=c1cc(O)c2sc(Nc3cccc(C(F)(F)F)c3)nc2[nH]1`, the IC50 in assay [9] is on record as > 50 µM (not active).

As for `Cn1cc(CN2CCCC(CNC(=O)c3ccc4c(c3)OCO4)C2)c2ccccc21` (stereo not given), the EC50 in “cells” was 0.064 µM (active); in assay [10] it was < 0.1 µM (active); in assay [11], > 60 µM (not active).

For `COc1ccc(-c2nn(-c3ccccc3)cc2C(=O)N/N=C/c2ccc([N+](=O)[O-])o2)cc1`, the EC50 was 0.038 µM (active) in “cells”, < 0.1 µM (active) in [10] and > 60 µM (not active) in assay [11].

As to `Cc1ccc(-c2c[n+](Cc3ccc(Cl)cc3)c3n2CCC3)cc1`, the AC50 in assay [12] is 14.2 µM (active); in the assay with INS1, 5.16 µM (active). Further, the EC50 in “cells” is 0.027 µM (active); in [10], < 0.1 µM (active); in [11] it was > 30 µM (not active).
